In patent US9415007B2, “Cyanocobalamin low viscosity aqueous formulations for intranasal delivery” (PAR PHARMACEUTICAL INC., priority 2003, dated 2016):

Columns and labels:
[1] = Uptake of Vitamin B12 into cerebrospinal fluid after intranasal and intramuscular administration; assay type: in vivo, human; details: intranasal administration compared with intramuscular injections
Source text: We conducted a non-blinded, single dose, parallel group study to compare the uptake of Vitamin B12 into the cerebrospinal fluid (CSF) after intranasal and intramuscular administration in healthy male and non-pregnant female volunteers. This study compared CSF levels to plasma levels produced by both formulations.
Thirty-six healthy male and non-pregnant female subjects, age 18 and over, were enrolled in the study. Eighteen subjects received a single intranasal dose of 500 mcg delivered as a 0.1 mL spray and eighteen subjects received a single intramuscular dose of 100 mcg delivered intramuscularly. Each subject visited the clinical site three times in a one-month period. These visits consisted of a screening visit, one dosing visit and a final visit.
After each dosing, each subject underwent lumbar puncture only once, with the retrieval of a total 4.0 mL of CSF (4 tubes, 1.0 mL per tube).
In addition to the above, on the day of dosing 7 mL blood samples were drawn before dosing and post dosing at 5, 10, 15 and 20 minutes, and at 0.5, 1, 1½, 2, 3, 4, 6, and 8 hours post-dose (prior to discharge).
The cerebrospinal fluid was evaluated for total Vitamin B12 content. […]
The levels of vitamin B12 were determined in both the CSF and blood serum using Vitamin B12 concentrations in the CSF will be analyzed for Qualitative determination of Vitamin B12 using a validated TOSOH Nex. […]

[2] = prior art (Merkus); not soluble at concentrations greater than; cited from earlier work

**Q.** Which results are given for “5,6-dimethyl-benzimidazolyl cyanocobamide [vitamin B12]”?
**A.** ratio of vitamin B12 (CSF) to serum, intranasal versus intramuscular [1]: higher; solubility in an aqueous solution [2]: ≤ 1%
